Experimental data as given in patent US9771389B2, “Tylosin derivatives and method for preparation thereof” (BAYER ANIMAL HEALTH GMBH, priority 2013, dated 2017).
In brackets after ≈: the same amount, converted by molar mass.

Tests used:
[1] = test system: coagulase negative staphylococci (CNS); assay: MIC50 mastitis pathogens, broth dilution; type: cell-based; settings: 7 to 12 isolates, 24 hours
Description: (§1) The activity of several compounds against bacterial mastitis pathogens has been tested under in-vitro conditions according to a recognized procedure (CLSI, document […]-A3, 2008). In this test 7 to 12 representative bacteria belonging to 7 bacterial species that typically cause mastitis in dairy cattle, i.e. Staphylococcus aureus, coagulase negative staphylococci (CNS), Streptococcus uberis, Streptococus dysgalactiae, Streptococcus agalactiae, Arcanobacterium pyogenes and Escherichia coli, were exposed to two-fold dilutions of the test compounds. After 24 hours of incubation the concentration that inhibited the growth of this bacteria was determined. It could be shown that all these bacterial mastitis pathogens were highly susceptible to the test compounds.

Staphylococcus aureus = assay: MIC50 mastitis pathogens, broth dilution; type: cell-based; settings: S. aureus, 7 to 12 isolates, 24 hours
Description: as §1

Streptococcus agalactiae = assay: MIC50 mastitis pathogens, broth dilution; type: cell-based; settings: Str agalactiae, 7 to 12 isolates, 24 hours
Description: as §1

Arcanobacterium pyogenes = assay: MIC50 mastitis pathogens, broth dilution; type: cell-based; settings: Trueperella pyogenes, A. pyogenes, 7 to 12 isolates, 24 hours
Description: as §1

Streptococcus uberis = assay: MIC50 mastitis pathogens, broth dilution; type: cell-based; settings: Str uberis, 7 to 12 isolates, 24 hours
Description: as §1

Escherichia coli = assay: MIC50 mastitis pathogens, broth dilution; type: cell-based; settings: E. coli, 7 to 12 isolates, 24 hours
Description: as §1

[2] = test system: Streptococus dysgalactiae; assay: MIC50 mastitis pathogens, broth dilution; type: cell-based; settings: Str dysgalactiae, 7 to 12 isolates, 24 hours
Description: as §1

[3] = test system: M. hemolytica KB346 (Tilmicosin-low sensitivity strain); assay: Paper disc assay, M. hemolytica KB346; type: cell-based, Mannhemia hemolytica; settings: Table 5
Procedure: (§2) (1) Antibacterial activities against Mannheimia and Pasteurella were determined by the following steps: • 1) M. hemolytica KB345 (Tilmicosin-sensitivity strain) and M. hemolytica KB346 (Tilmicosin-low sensitivity strain) were provided. KB 345 strain stored at −80° C. was seeded to BHIB agar medium (10 mL) by using Microbank beads (Pro-Lab) and platinum nail. After statically incubating the KB 345 strain for 24 hours at 37° C., it was seeded to maintaining slant BHIB agar medium (7 mL) by using platinum loop, further statically incubated for 24 hours at 37° C. to obtain slant. One platinum loop of KB 345 strain stored at the slant was inoculated into a large test tube charged with BHIB liquid medium (10 mL) and then incubated for 24 hours at 37° C. with shaking. • 2) A paper disc (ADVANTEC, Φ:6 mm) was impregnated with a solution of test compound and dried under reduced pressure. • 3) To a melted BHIB agar medium was inoculated 1% of the broth obtained from step 1) above to prepare a test plate. After the medium set, the paper disc prepared in step 2) above was put on the plate and it was incubated at 37° C. • 4) After one day, the inhibition zone diameter and clarity (A to E) were determined. For KB346 strain, the same procedures were repeated.

[4] = test system: M. hemolytica KB345 (Tilmicosin-sensitivity strain); assay: Paper disc assay, M. hemolytica KB345; type: cell-based, Mannhemia hemolytica; settings: Table 4
Procedure: as §2

[5] = test system: Mannheimia haemolytica, 3 isolates; assay: MIC against Mannheimia haemolytica isolates; type: cell-based
Procedure: (§3) Minimal inhibitory concentrations (MICs) were determined against the most prevalent pathogens in cattle (Mannheimia Haemolytica, 3 isolates) and swine (A. pleuropneumoniae, 6 isolates). In addition the activity of several compounds was tested against two bacterial species, i.e. Mannheimia haemolytica and Actinobacillus pleuropneumoniae, which are considered as the most important bacterial respiratory pathogens in cattle and swine, respectively.

[6] = test system: Actinobacillus pleuropneumoniae, 6 isolates; assay: MIC against Actinobacillus pleuropneumoniae isolates; type: cell-based
Procedure: as §3

MIC50 [1] [µg/mL]	MIC50 (Staphylococcus aureus) [µg/mL]	MIC50 (Streptococcus agalactiae) [µg/mL]	MIC50 (Arcanobacterium pyogenes) [µg/mL]	MIC50 (Streptococcus uberis) [µg/mL]	MIC50 (Escherichia coli) [µg/mL]	MIC50 [2] [µg/mL]	Compound	Inhibition zone ([3]; 30 mg/6 mm disk) [mm]	Inhibition zone ([3]; 100 mg/6 mm disk) [mm]	Inhibition zone ([4]; 3 mg/6 mm disk) [mm]	Inhibition zone ([4]; 10 mg/6 mm disk) [mm]	Inhibition zone ([4]; 30 mg/6 mm disk) [mm]	Inhibition zone ([4]; 100 mg/6 mm disk) [mm]	also measured
0.25 (≈ 0.295 µM)	0.25 (≈ 0.295 µM)	≤ 0.015	≤ 0.015	0.03 (≈ 0.0354 µM)	4 (≈ 4.72 µM)	0.03 (≈ 0.0354 µM)	CC[C@H]1OC(=O)C[C@@H](O)[C@H](C)[C@@H](O[C@@H]2OC(C)[C@@H](O)C(N(C)C)C2O)[C@@H](CCN(C)Cc2cn(-c3cnc4ccccc4c3)nn2)C[C@@H](C)C(=O)/C=C/C(C)=C/[C@@H]1CN(C)C (some centres unmarked) [YT770]	–	–	–	–	–	–	–
–	–	–	–	–	–	–	CCC1OC(=O)CC(O)C(C)C(OC2OC(C)C(O)C(N(C)C)C2O)C(CC=O)CC(C)C(=O)C=CC(C)=CC1CI (centres unmarked) [YT111]	8.5	13.0	11.5	15.5	20.0	25.0	–
0.25 (≈ 0.304 µM)	0.25 (≈ 0.304 µM)	0.008 (≈ 0.00974 µM)	0.004 (≈ 0.00487 µM)	0.03 (≈ 0.0365 µM)	8 (≈ 9.74 µM)	0.03 (≈ 0.0365 µM)	CC[C@H]1OC(=O)C[C@@H](O)[C@H](C)[C@@H](O[C@@H]2OC(C)[C@@H](O)C(N(C)C)C2O)[C@@H](CCN(C)Cc2cn(-c3cnc4ccccc4c3)nn2)C[C@@H](C)C(=O)/C=C/C(C)=C/[C@@H]1CO (some centres unmarked) [YT650]	–	–	–	–	–	–	–
0.25 (≈ 0.279 µM)	1 (≈ 1.12 µM)	0.03 (≈ 0.0335 µM)	0.015 (≈ 0.0167 µM)	0.03 (≈ 0.0335 µM)	8 (≈ 8.93 µM)	0.12 (≈ 0.134 µM)	CC[C@H]1OC(=O)C[C@@H](O)[C@H](C)[C@@H](O[C@@H]2OC(C)[C@@H](O)C(N(C)C)C2O)[C@@H](CCN(Cc2ccccc2)Cc2cn(-c3ccc4ccccc4c3)nn2)C[C@@H](C)C(=O)/C=C/C(C)=C/[C@@H]1CO (some centres unmarked) [YT762]	–	–	–	–	–	–	–
–	–	–	–	–	–	–	CC[C@H]1OC(=O)C[C@@H](O)[C@H](C)[C@@H](O[C@@H]2O[C@H](C)[C@@H](O)[C@H](N(C)C)[C@H]2O)[C@@H](CC=O)C[C@@H](C)C(=O)/C=C/C(C)=C/[C@@H]1CO [YT106, 5-O-mycaminosyltylonolide]	13.0	17.0	–	8.5	12.5	15.0	Inhibition zone ([3]; 10 mg/6 mm disk): 9.0 mm
–	–	–	–	–	–	–	CCC1OC(=O)CC(O)C(C)C(OC2OC(C)C(O)C(N(C)C)C2O)C(CCn2cc(-c3ccccc3)nn2)CC(C)C(=O)C=CC(C)=CC1CO (centres unmarked) [YT112, 20-(4-phenyl-1H-1,2,3-triazol-1-yl)-20-deoxo-5-O-mycaminosyltylonolide]	–	11.5	17.0	20.0	25.0	29.0	MICs ([5]; M. haemolytica isolate 1): 8 µg/mL; MICs ([5]; M. haemolytica isolate 2): 4 µg/mL; MICs ([5]; M. haemolytica isolate 3): 8 µg/mL; MICs ([6]; pleuropneumoniae isolate 1): 4 µg/mL; MICs ([6]; pleuropneumoniae isolate 2): 4 µg/mL; MICs ([6]; pleuropneumoniae isolate 3): 4 µg/mL; MICs ([6]; pleuropneumoniae isolate 4): 8 µg/mL; MICs ([6]; pleuropneumoniae isolate 5): 4 µg/mL; MICs ([6]; pleuropneumoniae isolate 6): 8 µg/mL
